Eleven compounds from patent US5714494A, “Xanthines in the 7th position with a benzyl acetic acid moiety” (Bayer Aktiengesellschaft, priority 1995, dated 1998) can be followed below.

In test [1] the test system is ApoB-100-associated lipoproteins. As to the kind of experiment: Inhibition of the release of ApoB-100-associated lipoproteins from HepG2 cells (immunoassay for human LDL). Particulars: light absorption 450 nm vs solvent control. The class given is cell-based. The protocol:
The test for detecting inhibition of the release of ApoB-100-associated lipoproteins from liver cells was carried out in vitro using cultured liver cells, preferably using cells of the human line HepG2. These cells are grown under standard conditions in medium for the culture of eucaryotic cells, preferably in RPMI 1640 using 10% foetal calf serum. HepG2 cells synthesize and secrete into the culture supernatant ApoB-100-associated lipoprotein particles which in principle are synthesized in a similar manner to the VLDL and LDL particles which are to be found in the plasma.
These particles can be detected using an immunoassay for human LDL. This immunoassay is carried out using antibodies which have been induced in the rabbit against human LDL under standard conditions. The anti-LDL antibodies (rabbit anti-LDL-Ab) were purified by affinity chromatography on an immunosorbent using human LDL. These purified rabbit anti-LDL Ab are adsorbed on the surface of plastic. Expediently, this adsorption is carried out on the plastic surface of microtitre plates having 96 wells, preferably on MaxiSorp plates. If ApoB-100-associated particles are present in the supernatant of Hep-G2 cells, these can bind to the insolubilized rabbit anti-LDL Ab, and an immune complex is formed which is bound to the plastic surface. Unbound proteins are removed by washing. The immune complex located on the plastic surface is detected using monoclonal antibodies which have been induced against human LDL according to standard conditions and purified. These antibodies were conjugated with the enzyme peroxidase. Peroxidase converts the colourless substrate TMB into a coloured product in the presence of H2 O2. After acidification of the reaction mixture using H2 SO4, the specific light absorption at 450 mn is determined, which is a measure of the amount of ApoB-100-associated particles which have been secreted into the culture supernatant by the HepG2 cells.
The IC50 value indicates at which substance concentration the light absorption is inhibited by 50% in comparison with the control (solvent control without substance).

The test system of test [2] is VLDL secretion. As to the kind of experiment: Inhibition of VLDL secretion in vivo (rat) (Triton rat). Particulars: for inhibition in vivo at 3 mg/kg: (n.s.) for 112, 114, 117, 154, 175, 176, 227, read-out: Triton rat % TG inhibition (p.o.) 2 h after substance. Here is the method: The action of the test substances on VLDL secretion is also investigated in the rat. To do this, 500 mg/kg of body weight (2.5 ml/kg) of Triton WR-1339, dissolved in physiological saline solution, are administered to rats intravenously in the tail vein. Triton WR-1339 inhibits lipoprotein lipase and thus leads through inhibition of VLDL catabolism to an increase in the triglyceride and cholesterol level. These increases can be used as a measure of the VLDL secretion rate.
Blood is taken from the animals before and one and two hours after administration of the detergent by puncture of the retroorbital venous plexus. The blood is incubated at room temperature for 1 h for clotting and the serum is recovered by centrifugation at 10,000 g for 20 s. The triglycerides are then determined photometrically at a wavelength of 540 nm by means of a commercially available coupled enzyme test (Sigma Diagnostics®, No. 339). Measurement is carried out with the aid of a likewise coupled enzyme test (Boehringer Mannheim®, No. 1442350) at a wavelength of 546 nm. Samples with triglyceride or cholesterol concentrations which exceed the measuring range of the methods are diluted with physiological saline solution. The respective serum concentrations are determined with the aid of standard series measured in parallel. Test substances are administered orally, intravenously or subcutaneously immediately after the Triton injection.

Test [3] deals with intestinal triglyceride absorption. Description: Inhibition of intestinal triglyceride absorption in vivo (rats). Details: species or system male Wistar rats. Particulars: po; for Absorption ED50 or % inhibition: 2 h; for ED50: Rattus norvegicus, serum triglyceride increase 2 h after triglyceride loading, fasting rats, read-out: Absorption ED50 or % inhibition. The protocol:
The substances which are to be investigated for their triglyceride absorption-inhibiting action in vivo are administered orally to male Wistar rats having a body weight of between 170 and 230 g. For this purpose, the animals are divided into groups of 6 animals 18 hours before administration of the substance and the feed is then withdrawn from them. Drinking water is available to the animals ad libitum. The animals of the control groups receive an aqueous tragacanth suspension or a tragacanth suspension which contains olive oil. The tragacanth-olive oil suspension is prepared using an Ultra-Turrax. The substances to be investigated are suspended directly before substance administration in a corresponding tragacanth-olive oil suspension, also using an Ultra-Turrax.
Before stomach tube application, blood is taken from each rat by puncture of the retroorbital venous plexus to determine the basal serum triglyceride content. The tragacanth suspension, the tragacanth-olive oil suspensions without substance (control animals) and the substances suspended in a corresponding tragacanth-olive oil suspension are then administered to the fasting animals using a stomach tube. Further taking of blood for the determination of the postprandial serum triglyceride rise is carried out, as a rule, 1,2 and 3 hours after stomach tube application.
The blood samples are centrifuged and, after recovering the serum, the triglycerides are determined photometrically using an EPOS analyzer 5060 (Eppendorf Geratebau, Netheler & Hinz GmbH, Hamburg). The triglycerides are determined by fully enzymatic means using a commercially available UV test.
The postprandial serum triglyceride increase is determined by subtraction of the triglyceride preliminary value of each animal from its corresponding postprandial triglyceride concentrations (1,2 and 3 hours after administration).
The differences (in mmol/l) at each time 1, 2 and 3 hours) are averaged in the groups, and the average values of the serum triglyceride increase (ΔTG) of the substance-treated animals are compared with the animals which only received the tragacanth-oil suspension.
Likewise, the serum triglyceride course of the control animals which received only tragacanth is calculated. The substance effect at each time (1, 2 or 3 hours) is determined as follows and given in Δ% of the oil-loaded control. [formula]
Effect of 10 mg of test substance/kg of body weight p.o. on the triglyceride increase (Δ%) 2 h after a triglyceride loading in the serum of fasting rats. The serum triglyceride increase of fat-loaded control animals based on the serum triglyceride level of tragacanth control animals corresponds to 100%. n=6 animals per group.
Statistical assessment was carried out using student3 s t test after prior checking of the variances for homogeneity.

Test [4] deals with VLDL secretion. Description: Determination of VLDL secretion in vivo in the hamster (Triton hamster). Details: species or system golden hamster. As to conditions: 6 mg/kg i.v. Here is the method:
The effects of the test substances on VLDL secretion in vivo is investigated in the hamster. To do this, golden hamsters are anaesthetized with Ketavet (83 mg/kg s.c.) and Nembutal (50 mg/kg i.p.) after premedication with atropine ([…] s.c.). When the animals have become reflex-free, the jugular vein is exposed and cannulated. 0.25 ml/kg of a 20% strength solution of Triton WR 1339 in physiological saline solution is then administered. This detergent inhibits the lipoprotein lipase and thus leads to an increase in the triglyceride level as a result of lack of catabolism of secreted VLDL particles. This triglyceride increase can be used as a measure of the VLDL secretion rate. Blood is taken from the animals before and one and two hours after administration of the detergent by puncture of the retroorbital venous plexus. The blood is incubated for two hours at room temperature, then overnight at 4° C. in order to finish clotting completely. […] The triglyceride concentration in the serum thus obtained is determined with the aid of a modified commercially available enzyme test (Merckotest® triglyceride No. 14354). […] The optical density is then determined at a wavelength of 492 nm in an automatic plate-reading apparatus (SLT spectra). […] The triglyceride concentration contained in the samples is determined with the aid of a standard curve measured in parallel. […]

Setting [5] is: Rattus norvegicus, po, 2 h, 3 mg/kg p.o.
The mark [6] stands for this setting: Homo sapiens, HepG2, HepG2 cells.

The term IC50 denotes the concentration that inhibits the measured activity by half. Read a low IC50 as greater potency. In general, ED50 refers to the midpoint of the dose-response relation.

The compound `Cc1ccc(-c2nc3c(c(=O)n(C)c(=O)n3C)n2Cc2ccc(C(C(=O)N[C@@H](CO)c3ccccc3)C3CCCC3)cc2)cc1` (single isomer, unassigned) [Example 136] gave an IC50 in test [1] (HepG2 cells) of 23 nM. Also, the inhibition in vivo at 3 mg/kg with VLDL secretion [2] (setting [5]) is 28%. In addition, the “Absorption ED50 or % inhibition” value in test [3] is listed as 2 mg/kg.

In the case of `Cn1c(=O)c2c(nc(Cc3ccccc3)n2Cc2ccc(C(C(=O)N[C@@H](CO)c3ccccc3)C3CCCCCC3)cc2)n(C)c1=O` (single isomer, unassigned) [Example 176], 19 nM corresponded to half-maximal inhibition in test [1] (HepG2 cells) (IC50). In addition, the “Triton rat % TG inhibition (p.o.) 2 h after substance” value in the test on VLDL secretion [2] (3 mg/kg p.o., (n.s.) for 112, 114, 117, 154, 175, 176, 227) is reported as 6.2%.

Consider `Cn1c(=O)c2c(nc(-c3cccs3)n2Cc2ccc(C(C(=O)N[C@@H](CO)c3ccccc3)C3CCCC3)cc2)n(C)c1=O` (some centres unmarked) [Example 157], for which, in test [1] (setting [6]), half-maximal inhibition (IC50) required 8 nM. Further, the inhibition in vivo at 3 mg/kg in the test with VLDL secretion [2] (setting [5]) came to 11.3%. The “Absorption ED50 or % inhibition” value in test [3] is on record as more than 2 mg/kg.

As to `Cn1c(=O)c2c(nc(-c3ccsc3)n2Cc2ccc(C(C(=O)N[C@@H](CO)c3ccccc3)C3CCCC3)cc2)n(C)c1=O` (some centres unmarked) [Example 154], in test [1] (setting [6]), the IC50 was 3 nM. Also, in the test on VLDL secretion [2] (setting [5]), the inhibition in vivo at 3 mg/kg is -4%. Further, in test [3], the “Absorption ED50 or % inhibition” value is given as less than 2 mg/kg.

`Cc1ccc(-c2nc3c(c(=O)n(C)c(=O)n3C)n2Cc2ccc(C(C(=O)N[C@@H](CO)c3ccccc3)C3CCCC3)cc2)cc1` (some centres unmarked) [Example 112] returned an IC50 in test [1] (setting [6]) of 4 nM. The inhibition in vivo at 3 mg/kg with VLDL secretion [2] (setting [5]) amounted to 17%. Besides, the ED50 in test [3] is 3 mg/kg.

In the case of `Cn1c(=O)c2c(nc(-c3ccccc3)n2Cc2ccc(C(C(=O)N[C@@H](CO)c3ccccc3)C3CCCC3)cc2)n(C)c1=O` (single isomer, unassigned) [Example 130], the IC50 in test [1] (HepG2 cells) worked out at 25 nM. For the same compound, in the test on VLDL secretion [2] (Rattus norvegicus, po, 2 h, 20 mg/kg p.o., read-out: Triton rat % TG inhibition (p.o.) 2 h after substance), the inhibition in vivo at 20 mg/kg is 36%. Moreover, in test [3], the ED50 worked out at 5 mg/kg.

In turn, `Cn1c(=O)c2c(nc(CCc3ccccc3)n2Cc2ccc(C(C(=O)N[C@@H](CO)c3ccccc3)C3CCCC3)cc2)n(C)c1=O` (stereo partly drawn) [Example 227, 2-(R&S)-Cyclopentyl-2-[4-(1,3-dimethyl-2,6-dioxo-8-(2-phenyl-ethyl)-1,2,3,6-tetra-hydro-purin-7-yl-methyl)phenyl]acet-N-[1-(R)-1-phenyl-2-hydroxy-ethyl)amide] registered a half-maximal inhibitory concentration (IC50) in test [1] (setting [6]) of 40 nM. Further, the inhibition in vivo at 3 mg/kg in the test with VLDL secretion [2] (setting [5]) was -8%. In addition, the “Absorption ED50 or % inhibition” value in test [3] is recorded as more than 6 mg/kg.

`Cn1c(=O)c2c(ncn2Cc2ccc(C(C(=O)N[C@@H](CO)c3ccccc3)C3CCCC3)cc2)n(C)c1=O` (single isomer, unassigned) [Example 114] came in with an IC50 in test [1] (HepG2 cells) of 39 nM. For the same compound, in the test with VLDL secretion [2] (setting [5]), the inhibition in vivo at 3 mg/kg came out at 14.1%. Besides, in test [3], the ED50 was less than 2 mg/kg.

Take `Cn1c(=O)c2c(nc(-c3ccccc3)n2Cc2ccc(C(C(=O)N[C@@H](CO)c3ccccc3)C3CCCC3)cc2)n(C)c1=O` (some centres unmarked) [Example 129]: the IC50 in test [1] (setting [6]) was 34 nM. In addition, in the test with VLDL secretion [4] (cholesterol), the “Triton hamster % CH inhibition 2 h after substance” value is on record as 25%. Further, in the test on VLDL secretion [4] (triglycerides), the “Triton hamster % TG inhibition 2 h after substance” value was found to be 25%. Besides, the ED50 in test [3] stood at 20 mg/kg.

For `Cn1c(=O)c2c(nc(Br)n2Cc2ccc(C(C(=O)N[C@@H](CO)c3ccccc3)C3CCCC3)cc2)n(C)c1=O` (single isomer, unassigned) [Example 117], the IC50 in test [1] (HepG2 cells) worked out at 3 nM. For the same compound, the inhibition in vivo at 3 mg/kg in the test on VLDL secretion [2] (setting [5]) was found to be 25%. Besides, the ED50 in test [3] amounted to 3 mg/kg.

`Cn1c(=O)c2c(nc(Cc3ccccc3)n2Cc2ccc(C(C(=O)N[C@@H](CO)c3ccccc3)C3CCCC3)cc2)n(C)c1=O` (single isomer, unassigned) [Example 169] came in with an IC50 in test [1] (HepG2 cells) of 3 nM. The inhibition in vivo at 3 mg/kg in the test on VLDL secretion [2] (setting [5]) was determined as 28%. Also, the inhibition in vivo at 5 mg/kg in the test on VLDL secretion [2] (Rattus norvegicus, po, 2 h, 5 mg/kg p.o., read-out: Triton rat % TG inhibition (p.o.) 2 h after substance) was found to be 41%. Besides, the inhibition in vivo at 10 mg/kg in the test on VLDL secretion [2] (Rattus norvegicus, po, 2 h, 10 mg/kg p.o., read-out: Triton rat % TG inhibition (p.o.) 2 h after substance) was 59.4%. Besides, the “Absorption ED50 or % inhibition” value in test [3] is given as 2 mg/kg.
